Literature values, collected in patent publication US20110105449A1, “DRY POWDER FORMULATIONS COMPRISING ASCORBIC ACID DERIVATES” (ASTRAZENECA R&D, priority 2007, published 2011).
In brackets after ≈: the same amount, converted by molar mass.

Details: at 25° C.

water solubility: 16 µg/mL (≈ 37.2 µM)
SMILES: CCCC1O[C@@H]2C[C@H]3[C@@H]4CCC5=CC(=O)C=C[C@]5(C)[C@H]4[C@@H](O)C[C@]3(C)[C@]2(C(=O)CO)O1 (stereo partly shown) [Budesonide, budesonide]
